Reference: patent US20090075972A1, “Use of Midostaurin for Treating Gastrointestinal Stromal Tumors” (priority 2004, published 2009)
Read-outs that look alike come from different tables or passages of the source.

Key:
KITΔ557-558/T670I [1] = target: T1, KITΔ557-558/T670I (Homo sapiens, UniProt P10721, DEL557-558/T670I); settings: Ba/F3 cells
Experimental: (§1) Construct: Mutant PDGFRA and KIT cDNA are obtained by RT-PCR on RNA isolated from progressive tumors. The cDNA's are cloned into the retroviral vector pMSCV-puro (Clontech).
(§2) Cell culture: 293T cells are grown in DMEM supplemented with 10% FCS. Ba/F3 cells are grown in RPMI-1640 supplemented with 10% FCS and interleukin-3 (1 ng/ml). Virus as produced as described previously, see e.g. Cools J. et al., N Engl J Med 2003; 348:1201-1214.
(§3) .Ba/F3 cells transduced with the different constructs are selected with puromycin (2 μg/ml). To test for factor independent growth, Ba/F3 cells are washed 3 times in PBS and new cultures are initiated in the absence of interleukin-3. Cells that became independent on interleukin-3, are maintained in the absence of interleukin-3. For dose-response curves, Ba/F3 cells are grown in 24-well plates with different concentrations of inhibitor. The number of viable cells is determined at the start and after 24 hrs, using the AqueousOne solution (Promega).
(§4) Ba/F3 cells are IL3 dependent for their growth, but become IL3 independent upon the expression of many activated kinases, such as FIP1 L1-PDGFRA and BCR-ABL. […] The PDGFRA ΔDIM842-844 mutant serve as a control in this experiment.

PDGFRA D842V = target: T2, PDGFRA D842V (Homo sapiens, UniProt P16234, D842V); assay: Dose response curves of Ba/F3 cells expressing mutant kinase (viable cells after 24 hrs); type: cell-based
T2 construct: expressed in transfected cells; host or cells: Ba/F3 murine cells, retroviral transduction with pMSCV-puro
Experimental: as §1, §2, §3, §4

PDGFRA ΔDIM842-844 = target: T3, PDGFRA ΔDIM842-844 (Homo sapiens, UniProt P16234, DEL842-844); assay: as above; type: cell-based
T3 construct: expressed in transfected cells; host or cells: Ba/F3 murine cells, retroviral transduction with pMSCV-puro
Experimental: as §1, §2, §3, §4

[2] = system: T674 I mutant form of FIPL1-PDGFRA; settings: refractory CEL patients; Cools J. et al., Cancer Cell 2003; cited from earlier work
KITInsAY502-503/V654A = KITInsAY502-503/V654A (Homo sapiens, UniProt P10721, INS503AY/V654A); settings: KITIns503AY/V654A cells
Experimental: (§5) Western-blot: Snap-frozen tumor specimens sufficient for preparation of cell lysates were available from ten refractory GISTs. Cell lysis, SDS-PAGE and immunoblotting were carried out as described.^21 Membranes (Amnersham Pharmacia Biotechnology, UK) were immunoblotted overnight using anti-phospho-KIT (Y703) (Zymed, San Francisco, Calif.) antibody at dilution of 1:500. The HRP-conjugated anti-rabbit IgG was used at a dilution of 1:2500 and visualized with Enhanced Chemiluminescence (Pierce). Membranes were then stripped and re-blotted to determine total protein levels using an antibody recognizing total KIT protein (anti-CD117, A4502, DAKO, Glostrup, Denmark).
(§6) Experiments are performed with serial dilutions of the 10 mM stock. Controls are performed with solvent (DMSO) dilutions. Primary cells are obtained from collagenase disaggregated progressive tumor specimens, seeded at 60-70% confluence in 100-mm cell culture dishes (Corning Inc., Corning, N.Y.) and grown for three days in DMEM supplemented with 10% fetal bovine serum, 0.1 mM nonessential amino acids, and 1.0 mM sodium pyruvate.
(§7) The results are compared with GIST882 cells, which carry a hemizygous KIT K642E mutation. Observations are standardized for total KIT expression using anti-KIT antibody.

KITΔ557-558/T670I [3] = target: T1, KITΔ557-558/T670I; settings: 90 min, KITΔ557-558/T670I cells
Experimental: as §5, §6, §7

[4] = human trials; cited from earlier work
GISTs = settings: one reported study; cited from earlier work

SMILES: CO[C@@H]1[C@H](N(C)C(=O)c2ccccc2)C[C@H]2O[C@]1(C)n1c3ccccc3c3c4c(c5c6ccccc6n2c5c31)C(=O)NC4 [PKC412, N-[(9S,10R,11R,13R)-2,3,10,11,12,13-hexahydro-10-methoxy-9-methyl-1-oxo-9,13-epoxy-1H,9H-diindolo[1,2,3-gh:3′,2′,1′-lm]pyrrolo[3,4-j][1,7]benzodiazonin-11-yl]-N-methylbenzamide]
- concentration at which mutant is inhibited (KITΔ557-558/T670I [1]): below 1 μM
- inhibition of PDGFRA D842V mutant (PDGFRA D842V; 1 μM): efficiently inhibits
- concentration at which mutant is inhibited (PDGFRA D842V; PDGFRA D842V): below 1 μM
- concentration at which mutant is inhibited (PDGFRA ΔDIM842-844): below 1 μM
- inhibitory activity against imatinib-resistant T674I FIPL1-PDGFRA [2]: full inhibitory activity
- KIT autophosphorylation (KITInsAY502-503/V654A; 0.5 μM, 90 min): reduced
- KIT autophosphorylation (KITInsAY502-503/V654A; ten-fold higher concentration than 0.5 μM): completely inhibited
- KIT autophosphorylation (KITΔ557-558/T670I [3]; 0.5 μM): reduced
- KIT autophosphorylation (KITΔ557-558/T670I [3]; 1 μM): totally inhibit
- Maximum Tolerated Dose (MTD), total dose [4]: ~225 mg/day

SMILES: Cc1ccc(NC(=O)c2ccc(CN3CCN(C)CC3)cc2)cc1Nc1nccc(-c2cccnc2)n1 [imatinib]
- patients with primary resistance to imatinib (GISTs): 13.7%
